According to patent US20240294495A1, “COMPOUNDS THAT MEDIATE PROTEIN DEGRADATION AND METHODS OF USE THEREOF” (Monte Rosa Therapeutics, Inc., priority 2021, published 2024):

What was measured:
CRBN-DDB1 = CRBN-DDB1 (Homo sapiens, UniProt Q96SW2); test: Compound binding to CRBN by HTRF assay; conditions: CRBN-DDB1 2.5 nM, Cy5-Thalidomide 100 nM probe, 30 min incubation; read-out: HTRF Class (Cereblon binding, HTRF IC50)
Experimental: Compound activity was monitored in a Homogenous Time-Resolved Fluorescence (HTRF) assay using 1-[5-({2-[2-(2-{[2-(2,6-dioxopiperidin-3-yl)-1,3-dioxo-2,3-dihydro-1H-isoindol-4-yl]oxy}acetamido)ethoxy]ethyl}carbamoyl)pentyl]-3,3-dimethyl-2-[(1E,3E)-5-[(2E)-1,3,3-trimethyl-5-sulfo-2,3-dihydro-1H-indol-2-ylidene]penta-1,3-dien-1-yl]-3H-indol-1-ium-5-sulfonate as a fluorescent probe. Biochemical assays were conducted in Greiner white 384 well HiBase plates (Cat. No 784075-25) in 10 μL total volume. A one pot detection solution of CRBN-DDB1 (2.5 nM), Anti-His Terbium Cryptate Gold (1×, PerkinElmer Cat. #: 61HI2TLB), and Cy5-Thalidomide (100 nM, Tenova Cat.: T52461) was prepared in 20 mM HEPES, 20 mM NaCl, 0.2 mM TCEP, 0.2 mM EDTA, and 0.005% Tween20 was dispensed to each assay plate. Compounds were stored in dry, ambient temperatures at 10 mM. A 10-point, 1:3 dilution series was prepared from 10 mM stock concentrations in Echo-compatible LDV plates. 10 nL of each compound dilution series was dispensed into assays wells using an Echo 650 (Labcyte inc. USA). 10 nL of 10 mM Lenalidomide was transferred into the active-control wells for the assay and 10 nL of DMSO was transferred into the neutral-control wells. The assay was then allowed to incubate for 30 min at ambient temperature after transferring compound. Plate measurements were taken on a Pherastar FSX (BMG Labtech, Germany) using the HTRF Red filter (Ex. 337 nm, em1: 620 nm, em2: 665 nm) (Flashes: 50, Integration time: 60-400 us, Z-height: 10 mm, Ratio-multiplier: 10,000). The HTRF signal was then subsequently normalized to the neutral and active controls. Analysis and IC50 values were derived using KNIME analytics (KNIME Zurich) transformation and fitting within Collaborative Drug Discovery (Collaborative Drug Discovery USA). Ki was derived from the geometric mean of the IC50 values using the Cheng-Prustoff transformation.
(§1) In Table 2, each compound is assigned a class (HTRF class) indicating the ability for Cereblon binding by means of their HTRF IC50 values according to Example 3: A, B or C. According to the code, A represents an IC50 value of <100 nM, B represents an IC50 value>100 nM and <1000 nM, C represents an IC50 value>1000 nM. IF Class assigns each compound a code indicating the ability for GSPT1 degradation: A, B or C. According to the code, A represents a DC50 value of <30 nM, B represents a DC50 value>30 nM and <300 nM and C represents a DC50 value of >300 nM.

GSPT1 = target: T1, GSPT1 (Homo sapiens, UniProt P15170+Q96SW2); test: Immunofluorescence assay for GSPT1 degradation in CAL-51 cells; assay type: cell-based; conditions: 6 h treatment, read-out: IF Class (GSPT1 degradation, DC50)
T1 construct: CAL-51 cells were purchased from DSMZ (cat. Number ACC302); endogenous in cells; host or cells: CAL-51 (DSMZ ACC302)
T1 sequence (P15170 whole entry): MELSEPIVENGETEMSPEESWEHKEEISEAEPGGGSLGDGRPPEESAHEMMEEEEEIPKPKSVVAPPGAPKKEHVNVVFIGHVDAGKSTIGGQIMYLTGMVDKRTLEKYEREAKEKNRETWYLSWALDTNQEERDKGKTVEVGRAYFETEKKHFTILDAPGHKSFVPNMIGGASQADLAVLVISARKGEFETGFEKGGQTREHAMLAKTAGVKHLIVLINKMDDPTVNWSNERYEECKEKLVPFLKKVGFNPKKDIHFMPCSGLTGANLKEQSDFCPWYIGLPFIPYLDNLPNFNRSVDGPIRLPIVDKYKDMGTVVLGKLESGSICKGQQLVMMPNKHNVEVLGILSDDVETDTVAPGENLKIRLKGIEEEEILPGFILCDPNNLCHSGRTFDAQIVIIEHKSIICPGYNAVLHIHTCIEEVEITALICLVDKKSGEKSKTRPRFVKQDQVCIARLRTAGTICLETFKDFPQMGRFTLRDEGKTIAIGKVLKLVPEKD
T1 sequence (Q96SW2 whole entry): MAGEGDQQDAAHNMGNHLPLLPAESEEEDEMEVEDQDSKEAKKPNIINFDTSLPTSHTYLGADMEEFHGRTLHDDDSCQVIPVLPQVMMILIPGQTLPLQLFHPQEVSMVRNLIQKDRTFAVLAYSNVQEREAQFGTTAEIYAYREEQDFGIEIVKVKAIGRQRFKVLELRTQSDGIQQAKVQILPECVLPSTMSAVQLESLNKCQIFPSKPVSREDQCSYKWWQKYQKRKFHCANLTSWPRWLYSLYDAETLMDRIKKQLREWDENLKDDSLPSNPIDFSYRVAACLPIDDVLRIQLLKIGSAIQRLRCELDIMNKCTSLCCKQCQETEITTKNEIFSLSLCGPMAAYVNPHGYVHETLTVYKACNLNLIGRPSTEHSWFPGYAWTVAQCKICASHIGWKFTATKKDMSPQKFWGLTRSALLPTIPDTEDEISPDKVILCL
T1 sequence (Q16531 2-1140 partner limits assumed): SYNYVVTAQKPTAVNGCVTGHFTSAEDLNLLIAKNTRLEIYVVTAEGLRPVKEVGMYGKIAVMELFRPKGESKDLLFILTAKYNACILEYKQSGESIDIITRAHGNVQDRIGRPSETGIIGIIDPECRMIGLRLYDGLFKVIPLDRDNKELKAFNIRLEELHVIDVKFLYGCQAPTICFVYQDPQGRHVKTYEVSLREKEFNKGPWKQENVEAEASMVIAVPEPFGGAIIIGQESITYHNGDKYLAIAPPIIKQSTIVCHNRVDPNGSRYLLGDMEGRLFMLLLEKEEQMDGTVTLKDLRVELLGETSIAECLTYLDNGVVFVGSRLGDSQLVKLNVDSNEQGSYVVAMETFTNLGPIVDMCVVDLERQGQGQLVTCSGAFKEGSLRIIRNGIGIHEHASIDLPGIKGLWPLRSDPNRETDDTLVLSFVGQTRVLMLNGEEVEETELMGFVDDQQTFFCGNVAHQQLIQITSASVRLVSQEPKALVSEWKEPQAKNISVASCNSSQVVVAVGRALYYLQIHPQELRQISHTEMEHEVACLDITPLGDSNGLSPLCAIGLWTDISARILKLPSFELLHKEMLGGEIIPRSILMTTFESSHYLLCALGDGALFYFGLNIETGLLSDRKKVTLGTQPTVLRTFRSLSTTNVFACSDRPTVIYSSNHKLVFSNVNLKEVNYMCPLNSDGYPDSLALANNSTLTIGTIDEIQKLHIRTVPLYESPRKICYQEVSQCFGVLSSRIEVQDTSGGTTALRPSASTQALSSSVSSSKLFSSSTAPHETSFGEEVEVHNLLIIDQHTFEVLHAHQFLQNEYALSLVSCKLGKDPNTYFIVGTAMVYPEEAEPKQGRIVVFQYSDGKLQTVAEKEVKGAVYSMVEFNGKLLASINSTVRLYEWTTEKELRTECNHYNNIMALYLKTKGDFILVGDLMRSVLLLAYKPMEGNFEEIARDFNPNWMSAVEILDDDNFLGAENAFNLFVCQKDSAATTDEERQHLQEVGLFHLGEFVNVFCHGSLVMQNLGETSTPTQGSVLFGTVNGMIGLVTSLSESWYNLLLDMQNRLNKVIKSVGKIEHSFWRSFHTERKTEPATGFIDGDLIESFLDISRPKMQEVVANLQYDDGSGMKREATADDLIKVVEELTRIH
Experimental: The representative compounds were tested in an immunofluorescence assay for their activity to degrade GSPT1. CAL-51 cells were purchased from DSMZ (cat. Number ACC302), sub-cultured in 90% Dulbecco's MEM (4.5 g/L glucose, Gibco 11965)+10% heat inactivated FBS (BioConcept, 2-01F136I) and incubated at 37° C., 5% CO2. For the assay imaging microtiter plate Cell Carrier 96 Ultra (Perkin Elmer 6055302) were pre-coated with Fibronectin (Sigma F085, 30 μl at 0.2 μg/mL) in PBS (100 μL, Gibco 14190) for 45 min at room temperature, rinsed with PBS and CAL-51 cells (30K cells/well) were plated and let to adhere overnight. Cells were treated with compounds typically using a serial dilution ranging from 30 μM to 0.1 nM for 6 h. Compounds were stored at 10 mM DMSO stocks. Vehicle (DMSO), positive (CC-885, 10 μM) and rescue controls (positive control plus 0.2 μM bortezomib) were also included at this stage. Cells were subsequently rinsed with PBS and fixed in 10% Formalin solution (50 μl, Sigma HT5011)) for 20 min at room temperature. Following three consecutive PBS washes (100 μL), cells were permeabilized in 0.1% Triton X-100 in PBS (Sigma 93443, 50 μl) for 15 min at room temperature. Following three further PBS washes, 50 μl blocking buffer (1% BSA, Sigma A4503, in PBS) was added for 45 min for signal-to noise reduction. Primary antibody (human GSPT1, Sigma HPA052488) was diluted in blocking buffer (dil.1/300, 35 μL/well) and incubated with the cells overnight at 4° C. After three PBS washes, Alexa-fluor 488 coupled secondary antibodies (Invitrogen, A32731, dil.1/1000), Alexa-fluor 647-Phalloidin (Invitrogen, A22287, dil.1/200) and DAPI (Thermo, #62248, dil.1/1000) were diluted in blocking buffer and incubated with the samples for 2 h at room temperature. After three final PBS washes, samples were conserved in 100 μL PBS in the dark, until measurement. Image acquisition was performed on the Operetta High-Content Imager (Perkin-Elmer). Fluorescence intensity of […] (GSPT1), Alexa-Fluor 647 (Actin) and DAPI (Nucleus) were measured. For the determination of GSPT1 DC50 values, a custom algorithm implemented in the PerkinElmer image analysis software Harmony-Acapella® was developed. After user-defined setting of adjustment parameters, the analysis was run identically without human intervention for all image fields. DAPI staining of the nuclei was used to determine the location of cells using standard nuclei detection modules. Segmentation artifacts were removed by threshold-based filters for area, roundness and intensity. The outline of the cells was determined analogously from the sum of the normalized, smoothed DAPI and Actin channel, starting from each nucleus. The Alexa-Fluor 488 (GSPT1) signal intensity in each cell was finally measured, in order to obtain a Mean intensity per cell. GSPT1 degradation (DC50) was calculated after normalization to controls and data import in CDD vault Database, using non-linear regression.
as §1

CRBN-DDB1, sequence (Q96SW2 whole entry): as the sequence (Q96SW2 whole entry) above
CRBN-DDB1, sequence (Q16531 whole entry partner): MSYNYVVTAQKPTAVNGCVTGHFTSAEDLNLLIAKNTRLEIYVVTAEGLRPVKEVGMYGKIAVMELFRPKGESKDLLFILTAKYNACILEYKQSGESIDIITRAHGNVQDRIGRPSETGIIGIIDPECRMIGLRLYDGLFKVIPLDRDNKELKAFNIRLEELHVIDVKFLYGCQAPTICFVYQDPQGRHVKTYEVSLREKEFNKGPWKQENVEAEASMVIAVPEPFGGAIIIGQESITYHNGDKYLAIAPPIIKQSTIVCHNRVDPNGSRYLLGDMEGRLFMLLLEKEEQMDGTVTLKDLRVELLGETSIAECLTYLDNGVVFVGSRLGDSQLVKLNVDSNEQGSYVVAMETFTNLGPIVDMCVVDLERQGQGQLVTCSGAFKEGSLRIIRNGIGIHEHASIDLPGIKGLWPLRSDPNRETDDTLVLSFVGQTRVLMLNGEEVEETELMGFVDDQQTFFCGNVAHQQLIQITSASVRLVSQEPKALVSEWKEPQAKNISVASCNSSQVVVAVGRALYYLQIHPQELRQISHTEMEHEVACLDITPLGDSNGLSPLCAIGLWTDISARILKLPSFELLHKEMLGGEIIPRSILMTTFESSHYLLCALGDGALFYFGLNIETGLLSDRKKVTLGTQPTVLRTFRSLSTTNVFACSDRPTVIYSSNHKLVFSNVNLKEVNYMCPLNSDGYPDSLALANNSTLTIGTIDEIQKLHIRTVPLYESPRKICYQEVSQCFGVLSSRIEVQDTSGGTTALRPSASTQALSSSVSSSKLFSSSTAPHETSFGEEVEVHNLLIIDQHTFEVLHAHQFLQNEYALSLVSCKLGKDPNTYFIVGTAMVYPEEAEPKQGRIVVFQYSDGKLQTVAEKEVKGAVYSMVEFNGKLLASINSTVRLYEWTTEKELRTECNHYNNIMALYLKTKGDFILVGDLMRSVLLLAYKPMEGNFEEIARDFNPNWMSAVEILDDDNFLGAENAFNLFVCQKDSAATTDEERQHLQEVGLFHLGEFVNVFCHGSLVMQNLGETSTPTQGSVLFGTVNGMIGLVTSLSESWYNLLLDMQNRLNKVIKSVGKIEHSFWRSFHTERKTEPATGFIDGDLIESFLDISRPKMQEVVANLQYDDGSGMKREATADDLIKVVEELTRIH

| IC50 (CRBN-DDB1) | DC50 (GSPT1) | Structure (SMILES) |
| --- | --- | --- |
| 0.1 to 1 µM | < 0.03 µM | Cc1cc(F)c(NC(=O)CC2CN(c3cc(F)c(C4CCC(=O)NC4=O)c(F)c3)C2)cc1Cl (stereo not drawn) [Compound 5, N-(5-chloro-2-fluoro-4-methylphenyl)-2-(1-(4-(2,6-dioxopiperidin-3-yl)-3,5-difluorophenyl)azetidin-3-yl)acetamide] |
| – | > 0.3 µM | O=C1CCC(c2ccc(N3CC(NC(=O)C(F)(F)c4ccc(Cl)cc4)C3)cc2Cl)C(=O)N1 (stereo not drawn) [Compound 35, N-(1-(3-chloro-4-(2,6-dioxopiperidin-3-yl)phenyl)azetidin-3-yl)-2-(4-chlorophenyl)-2,2-difluoroacetamide] |
| – | > 0.3 µM | O=C1CCC(c2c(F)cc(N3CC(NC(=O)C(F)(F)c4ccc(Cl)cc4)C3)cc2F)C(=O)N1 (stereo not drawn) [Compound 37, 2-(4-chlorophenyl)-N-(1-(4-(2,6-dioxopiperidin-3-yl)-3,5-difluorophenyl)azetidin-3-yl)-2,2-difluoroacetamide] |
| – | < 0.03 µM | Cc1c(Cl)cc(NC(=O)CC2CN(c3cc(F)c(C4CCC(=O)NC4=O)c(F)c3)C2)cc1CN1CCOCC1 (stereo not drawn) [Compound 38, N-(3-chloro-4-methyl-5-(morpholinomethyl)phenyl)-2-(1-(4-(2,6-dioxopiperidin-3-yl)-3,5-difluorophenyl)azetidin-3-yl)acetamide] |
| – | 0.03 to 0.3 µM | O=C1CCC(c2c(F)cc(N3CC(CC(=O)Nc4cccc(OC(F)(F)F)c4)C3)cc2F)C(=O)N1 (stereo not drawn) [Compound 39, 2-(1-(4-(2,6-dioxopiperidin-3-yl)-3,5-difluorophenyl)azetidin-3-yl)-N-(3-(trifluoromethoxy)phenyl)acetamide] |
| – | > 0.3 µM | O=C1CCC(c2c(F)cc(N3CC(CC(=O)Nc4cc(F)cc(OC(F)F)c4)C3)cc2F)C(=O)N1 (stereo not drawn) [Compound 45, N-(3-(difluoromethoxy)-5-fluorophenyl)-2-(1-(4-(2,6-dioxopiperidin-3-yl)-3,5-difluorophenyl)azetidin-3-yl)acetamide] |

Continued, molecule first:

| Structure (SMILES) | IC50 (CRBN-DDB1) | DC50 (GSPT1) |
| --- | --- | --- |
| N#Cc1ccc(CC(=O)NC2CN(c3cc(F)c(C4CCC(=O)NC4=O)c(F)c3)C2)c(Cl)c1 (stereo not drawn) [Compound 1, 2-(2-chloro-4-cyanophenyl)-N-(1-(4-(2,6-dioxopiperidin-3-yl)-3,5-difluorophenyl)azetidin-3-yl)acetamide] | 0.1 to 1 µM | > 0.3 µM |
| O=C1CCC(c2c(F)cc(N3CC(NC(=O)CC4CCC4)C3)cc2F)C(=O)N1 (stereo not drawn) [Compound 2, 2-cyclobutyl-N-(1-(4-(2,6-dioxopiperidin-3-yl)-3,5-difluorophenyl)azetidin-3-yl)acetamide] | 0.1 to 1 µM | > 0.3 µM |
| Cc1cc(NC(=O)CC2CN(c3cc(F)c(C4CCC(=O)NC4=O)c(F)c3)C2)ccc1Cl (stereo not drawn) [Compound 3, N-(4-chloro-3-methylphenyl)-2-(1-(4-(2,6-dioxopiperidin-3-yl)-3,5-difluorophenyl)azetidin-3-yl)acetamide] | 0.1 to 1 µM | < 0.03 µM |
| O=C1CCC(c2c(F)cc(N3CC(NC(=O)Cc4cc(Cl)c(F)cc4F)C3)cc2F)C(=O)N1 (stereo not drawn) [Compound 4, 2-(5-chloro-2,4-difluorophenyl)-N-(1-(4-(2,6-dioxopiperidin-3-yl)-3,5-difluorophenyl)azetidin-3-yl)acetamide] | 0.1 to 1 µM | < 0.03 µM |
| O=C1CCC(c2ccc(N3CC(NC(=O)Cc4ccc(Cl)cc4)C3)cc2Cl)C(=O)N1 (stereo not drawn) [Compound 34, N-(1-(3-chloro-4-(2,6-dioxopiperidin-3-yl)phenyl)azetidin-3-yl)-2-(4-chlorophenyl)acetamide] | – | > 0.3 µM |
| N#Cc1cc(Cl)cc(CC(=O)NC2CN(c3cc(F)c(C4CCC(=O)NC4=O)c(F)c3)C2)c1 (stereo not drawn) [Compound 44, 2-(3-chloro-5-cyanophenyl)-N-(1-(4-(2,6-dioxopiperidin-3-yl)-3,5-difluorophenyl)azetidin-3-yl)acetamide] | – | 0.03 to 0.3 µM |
| O=C1CCC(c2c(F)cc(N3CC(NC(=O)c4cc(Cl)ccc4F)C3)cc2F)C(=O)N1 (stereo not drawn) [Compound 46, 5-chloro-N-(1-(4-(2,6-dioxopiperidin-3-yl)-3,5-difluorophenyl)azetidin-3-yl)-2-fluorobenzamide] | 0.1 to 1 µM | – |
